Experimental data published in patent US12281149B2, “Modulators of G-protein coupled receptors” (priority 2021, dated 2025).
Read-outs that look alike come from different tables or passages of the source. *1 amine or outer side, *2 acyl side, *3 side chain or, on linkers, in order; H or OH if unused. Where a SMILES comes first, the peptide text is derived from it. Side-chain parts run from the residue outwards. [ ]: non-standard residue; d: D form. The star is where a group is joined. Isobutyryl(2-(3-CN-5-F-Ph)) = CC(C)(C(=O)*)c1cc(F)cc(C#N)c1; C20 diacid = O=C(O)CCCCCCCCCCCCCCCCCCC(=O)*; γGlu = O=C(O)[C@H](CCC(=O)[*:2])N[*:1]; X51 = COc1cccc(C2(C(=O)*)CCCC2)c1; X65 = CC(C)(C(=O)*)c1cc(N)cc(F)c1; X5 = O=C(C1(c2ccc(F)cc2F)CCCC1)*; NH(4-Me-phenyl) = Cc1ccc(N*)cc1; AEEA = NCCOCCOCC(=O)O; Aib = CC(C)(N)C(=O)O; CO = O=C([*:1])[*:2]; GABA = NCCCC(=O)O; βAla = NCCC(=O)O

Key:
Format in all cases: cell-based
[1] = biological target: T1, GLP-1 receptor (Homo sapiens, UniProt P43220); assay: PathHunter β-arrestin assay, GLP-1 receptor; set-up: host or cells: PathHunter CHO-K1 GLP1R β-Arrestin Cell Line
[2] = biological target: T2, GIP receptor (Homo sapiens, UniProt P48546); assay: HitHunter cAMP assay, GIP receptor; settings: for Emax: read-out: Emax GIP-1R
T2 sequence (P48546 22-466): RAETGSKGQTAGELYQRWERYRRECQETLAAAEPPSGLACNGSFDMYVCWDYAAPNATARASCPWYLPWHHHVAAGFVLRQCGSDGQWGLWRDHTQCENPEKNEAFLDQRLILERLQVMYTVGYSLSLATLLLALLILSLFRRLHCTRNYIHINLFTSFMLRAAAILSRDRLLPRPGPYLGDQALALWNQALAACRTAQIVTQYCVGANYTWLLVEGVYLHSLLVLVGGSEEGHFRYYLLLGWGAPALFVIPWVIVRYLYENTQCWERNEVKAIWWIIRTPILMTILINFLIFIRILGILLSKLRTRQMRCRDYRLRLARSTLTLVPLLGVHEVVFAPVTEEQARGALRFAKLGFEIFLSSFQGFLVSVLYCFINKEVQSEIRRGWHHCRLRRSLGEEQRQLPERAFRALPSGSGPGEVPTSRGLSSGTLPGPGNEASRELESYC

[3] = biological target: T1, GLP-1 receptor; assay: HitHunter cAMP assay, GLP-1 receptor; settings: for Emax: read-out: Emax GLP-1R
[4] = biological target: T2, GIP receptor; assay: PathHunter β-arrestin assay, GIP receptor; set-up: host or cells: PathHunter CHO-K1 GIPR β-Arrestin Cell Line
[5] = β-arrestin-2 recruitment, PathHunter CHO-K1 GLP1R β-Arrestin Cell Line, 90 min at 37° C., normalized to GLP-1, read-out: GLP-1R β Arrestin EC50
[6] = CHO cells stably expressing GIP receptor, cAMP accumulation, 30 min, read-out: EC50 GIP-1R
[7] = CHO cells, cAMP, normalized to maximum signal from GIP (high) and DMSO (low)
[8] = CHO cells stably expressing human GLP-1 receptor, cAMP accumulation, 30 min, read-out: EC50 GLP-1R
[9] = CHO cells, cAMP, normalized to maximum signal from GLP-1 (high) and DMSO (low)
[10] = β-arrestin-2 recruitment, PathHunter CHO-K1 GIPR β-Arrestin Cell Line, 90 min at 37° C., normalized to GIP, read-out: GIPR β Arrestin EC50

T1 sequence (P43220 24-463): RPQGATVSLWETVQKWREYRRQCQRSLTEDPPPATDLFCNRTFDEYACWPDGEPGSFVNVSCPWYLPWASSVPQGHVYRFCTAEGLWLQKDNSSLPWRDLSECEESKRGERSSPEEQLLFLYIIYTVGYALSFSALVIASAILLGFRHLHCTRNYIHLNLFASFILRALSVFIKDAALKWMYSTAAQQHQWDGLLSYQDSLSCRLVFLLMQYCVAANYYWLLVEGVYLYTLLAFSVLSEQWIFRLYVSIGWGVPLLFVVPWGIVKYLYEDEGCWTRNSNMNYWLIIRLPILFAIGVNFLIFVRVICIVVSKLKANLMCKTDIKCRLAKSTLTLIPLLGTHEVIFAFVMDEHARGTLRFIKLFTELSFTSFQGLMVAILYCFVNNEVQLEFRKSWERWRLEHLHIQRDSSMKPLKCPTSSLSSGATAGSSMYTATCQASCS

| Compound | EC50 [1, 5] | EC50 [2, 6] | Emax [2, 7] | EC50 [3, 8] | Emax [3, 9] | EC50 [4, 10] | EC50 [1] | EC50 [2] | Emax ([2]; CHO) | EC50 [3] | Emax ([3]; CHO) | EC50 [4] |
| --- | --- | --- | --- | --- | --- | --- | --- | --- | --- | --- | --- | --- |
| CC[C@H](C)[C@H](NC(=O)[C@H](CC(C)C)NC(=O)[C@H](Cc1c[nH]c2ccccc12)NC(=O)[C@H](CCC(N)=O)NC(=O)[C@@H](NC(=O)[C@H](Cc1ccccc1)NC(=O)[C@H](C)NC(=O)[C@H](CCCCNC(=O)COCCOCCNC(=O)COCCOCCNC(=O)CC[C@H](NC(=O)CCCCCCCCCCCCCCCCCCC(=O)O)C(=O)O)NC(=O)[C@H](CCC(N)=O)NC(=O)[C@H](C)NC(=O)[C@@H](NC(=O)[C@H](CCCCN)NC(=O)[C@H](CC(=O)O)NC(=O)[C@H](CC(C)C)NC(=O)C(C)(C)NC(=O)[C@@H](NC(=O)[C@H](CO)NC(=O)[C@H](Cc1ccc(O)cc1)NC(=O)[C@H](CC(=O)O)NC(=O)[C@H](CO)NC(=O)[C@@H](NC(=O)[C@H](Cc1ccccc1)NC(=O)[C@@H](NC(=O)CNC(=O)[C@H](CCC(=O)O)NC(=O)CCNC(=O)C1(c2ccc(F)cc2F)CCCC1)[C@@H](C)O)[C@@H](C)O)[C@@H](C)CC)[C@@H](C)CC)C(C)C)C(=O)N[C@@H](C)C(=O)NCC(=O)NCC(=O)N1CCC[C@H]1C(=O)N[C@@H](CO)C(=O)N[C@@H](CO)C(=O)NCC(=O)N[C@@H](C)C(=O)N1CCC[C@H]1C(=O)N1CCC[C@H]1C(=O)N1CCC[C@H]1C(=O)N[C@@H](CO)C(N)=O [Compound 220] ({X5-βAla}-EGTFTSDYSI[Aib]LDKIAQK([AEEA-AEEA-γGlu-C20 diacid])AFVQWLIAGGPSSGAPPPS-NH2) | > 1000 nM | 0.1 to 1 nM | 108% | 0.1 to 1 nM | 102% | < 1000 nM |  |  |  |  |  |  |
| CC[C@H](C)[C@H](NC(=O)[C@H](CC(C)C)NC(=O)[C@H](Cc1c[nH]c2ccccc12)NC(=O)[C@H](CCC(N)=O)NC(=O)[C@@H](NC(=O)[C@H](Cc1ccccc1)NC(=O)[C@H](C)NC(=O)[C@H](CCCCNC(=O)COCCOCCNC(=O)COCCOCCNC(=O)CC[C@H](NC(=O)CCCCCCCCCCCCCCCCCCC(=O)O)C(=O)O)NC(=O)[C@H](CCC(N)=O)NC(=O)[C@H](C)NC(=O)[C@@H](NC(=O)[C@H](CCCCN)NC(=O)[C@H](CC(=O)O)NC(=O)[C@H](CC(C)C)NC(=O)C(C)(C)NC(=O)[C@@H](NC(=O)[C@H](CO)NC(=O)[C@H](Cc1ccc(O)cc1)NC(=O)[C@H](CC(=O)O)NC(=O)[C@H](CO)NC(=O)[C@@H](NC(=O)[C@H](Cc1ccccc1)NC(=O)[C@@H](NC(=O)CNC(=O)[C@@H](CCC(=O)O)NC(=O)CCNC(=O)C(C)(C)c1cc(F)cc(C#N)c1)[C@@H](C)O)[C@@H](C)O)[C@@H](C)CC)[C@@H](C)CC)C(C)C)C(=O)N[C@@H](C)C(=O)NCC(=O)NCC(=O)N1CCC[C@H]1C(=O)N[C@@H](CO)C(=O)N[C@@H](CO)C(=O)NCC(=O)N[C@@H](C)C(=O)N1CCC[C@H]1C(=O)N1CCC[C@H]1C(=O)N1CCC[C@H]1C(=O)N[C@@H](CO)C(N)=O [Compound 109] ({Isobutyryl(2-(3-CN-5-F-Ph))-βAla}-[dE]GTFTSDYSI[Aib]LDKIAQK([AEEA-AEEA-γGlu-C20 diacid])AFVQWLIAGGPSSGAPPPS-NH2) | > 1000 nM | 10 to 100 nM | 96% | 10 to 100 nM | 82% | > 1000 nM |  |  |  |  |  |  |
| CC[C@H](C)[C@H](NC(=O)[C@H](CC(C)C)NC(=O)[C@H](Cc1c[nH]c2ccccc12)NC(=O)[C@H](CCC(N)=O)NC(=O)[C@@H](NC(=O)[C@H](Cc1ccccc1)NC(=O)[C@H](C)NC(=O)[C@H](CCCCNC(=O)COCCOCCNC(=O)COCCOCCNC(=O)CC[C@H](NC(=O)CCCCCCCCCCCCCCCCCCC(=O)O)C(=O)O)NC(=O)[C@H](CCC(N)=O)NC(=O)[C@H](C)NC(=O)[C@@H](NC(=O)[C@H](CCCCN)NC(=O)[C@H](CC(=O)O)NC(=O)[C@H](CC(C)C)NC(=O)C(C)(C)NC(=O)[C@@H](NC(=O)[C@H](CO)NC(=O)[C@H](Cc1ccc(O)cc1)NC(=O)[C@H](CC(=O)O)NC(=O)[C@H](CO)NC(=O)[C@@H](NC(=O)[C@H](Cc1ccccc1)NC(=O)[C@@H](NC(=O)CNC(=O)[C@H](CCC(=O)O)NC(=O)CCNC(=O)C(C)(C)c1cc(N)cc(F)c1)[C@@H](C)O)[C@@H](C)O)[C@@H](C)CC)[C@@H](C)CC)C(C)C)C(=O)N[C@@H](C)C(=O)NCC(=O)NCC(=O)N1CCC[C@H]1C(=O)N[C@@H](CO)C(=O)N[C@@H](CO)C(=O)NCC(=O)N[C@@H](C)C(=O)N1CCC[C@H]1C(=O)N1CCC[C@H]1C(=O)N1CCC[C@H]1C(=O)N[C@@H](CO)C(N)=O [Compound 133] ({X65-βAla}-EGTFTSDYSI[Aib]LDKIAQK([AEEA-AEEA-γGlu-C20 diacid])AFVQWLIAGGPSSGAPPPS-NH2) | > 1000 nM | 100 to 1000 nM | 107% | 0.1 to 1 nM | 104% | > 1000 nM |  |  |  |  |  |  |
| CC[C@H](C)[C@H](NC(=O)[C@H](CC(C)C)NC(=O)[C@H](Cc1c[nH]c2ccccc12)NC(=O)[C@H](CCC(N)=O)NC(=O)[C@@H](NC(=O)[C@H](Cc1ccccc1)NC(=O)[C@H](C)NC(=O)[C@H](CCCCNC(=O)COCCOCCNC(=O)COCCOCCNC(=O)CC[C@H](NC(=O)CCCCCCCCCCCCCCCCCCC(=O)O)C(=O)O)NC(=O)[C@H](CCC(N)=O)NC(=O)[C@H](C)NC(=O)[C@@H](NC(=O)[C@H](CCCCN)NC(=O)[C@H](CC(=O)O)NC(=O)[C@H](CC(C)C)NC(=O)C(C)(C)NC(=O)[C@@H](NC(=O)[C@H](CO)NC(=O)[C@H](Cc1ccc(O)cc1)NC(=O)[C@H](CC(=O)O)NC(=O)[C@H](CO)NC(=O)[C@@H](NC(=O)[C@H](Cc1ccccc1)NC(=O)[C@@H](NC(=O)CNC(=O)[C@H](CCC(=O)O)NC(=O)CCNC(=O)C1(c2cccc(OC)c2)CCCC1)[C@@H](C)O)[C@@H](C)O)[C@@H](C)CC)[C@@H](C)CC)C(C)C)C(=O)N[C@@H](C)C(=O)NCC(=O)NCC(=O)N1CCC[C@H]1C(=O)N[C@@H](CO)C(=O)N[C@@H](CO)C(=O)NCC(=O)N[C@@H](C)C(=O)N1CCC[C@H]1C(=O)N1CCC[C@H]1C(=O)N1CCC[C@H]1C(=O)N[C@@H](CO)C(N)=O [Compound 207] ({X51-βAla}-EGTFTSDYSI[Aib]LDKIAQK([AEEA-AEEA-γGlu-C20 diacid])AFVQWLIAGGPSSGAPPPS-NH2) | > 1000 nM | 1 to 10 nM | 109% | 1 to 10 nM | 97% | > 1000 nM |  |  |  |  |  |  |
| CC[C@H](C)[C@H](NC(=O)[C@H](CC(C)C)NC(=O)[C@H](Cc1c[nH]c2ccccc12)NC(=O)[C@H](CCC(N)=O)NC(=O)[C@@H](NC(=O)[C@H](Cc1ccccc1)NC(=O)[C@H](C)NC(=O)[C@H](CCCCNC(=O)COCCOCCNC(=O)COCCOCCNC(=O)CC[C@H](NC(=O)CCCCCCCCCCCCCCCCCCC(=O)O)C(=O)O)NC(=O)[C@H](CCC(N)=O)NC(=O)[C@H](C)NC(=O)[C@@H](NC(=O)[C@H](CCCCN)NC(=O)[C@H](CC(=O)O)NC(=O)[C@H](CC(C)C)NC(=O)C(C)(C)NC(=O)[C@@H](NC(=O)[C@H](CO)NC(=O)[C@H](Cc1ccc(O)cc1)NC(=O)[C@H](CC(=O)O)NC(=O)[C@H](CO)NC(=O)[C@@H](NC(=O)[C@H](Cc1ccccc1)NC(=O)[C@@H](NC(=O)CNC(=O)[C@H](CCC(=O)O)NC(=O)CCCNC(=O)CNC(=O)Nc1ccc(C)cc1)[C@@H](C)O)[C@@H](C)O)[C@@H](C)CC)[C@@H](C)CC)C(C)C)C(=O)N[C@@H](C)C(=O)NCC(=O)NCC(=O)N1CCC[C@H]1C(=O)N[C@@H](CO)C(=O)N[C@@H](CO)C(=O)NCC(=O)N[C@@H](C)C(=O)N1CCC[C@H]1C(=O)N1CCC[C@H]1C(=O)N1CCC[C@H]1C(=O)N[C@@H](CO)C(N)=O [Compound 271] ({NH(4-Me-phenyl)-CO}-G[GABA]EGTFTSDYSI[Aib]LDKIAQK([AEEA-AEEA-γGlu-C20 diacid])AFVQWLIAGGPSSGAPPPS-NH2) |  |  |  |  |  |  | > 1000 nM | 1 to 10 nM | 105% | 1 to 10 nM | 94% | < 1000 nM |
